From US10202354B2, “Therapeutic compounds and uses thereof” (GENENTECH, INC., priority 2015, dated 2019) come the findings set out here.

For this experiment, the target named is Full length KDM2B (Homo sapiens (Human), UniProt Q8NHM5). Description: KDM2B TR-FRET Assay for Determining Inhibitor IC50. The format is biochemical. The note with it: TR-FRET (HTRF), biotin-H3K36me2 peptide substrate. From the text: KDM2B TR-FRET Assay for Determining Inhibitor IC50
The KDM2B TR-FRET Assay described above represents an additional embodiment of the invention.
For orientation: Time-resolved FRET reads energy transfer from a long-lived donor to a nearby acceptor.

Sequence of Full length KDM2B (Q8NHM5 whole entry): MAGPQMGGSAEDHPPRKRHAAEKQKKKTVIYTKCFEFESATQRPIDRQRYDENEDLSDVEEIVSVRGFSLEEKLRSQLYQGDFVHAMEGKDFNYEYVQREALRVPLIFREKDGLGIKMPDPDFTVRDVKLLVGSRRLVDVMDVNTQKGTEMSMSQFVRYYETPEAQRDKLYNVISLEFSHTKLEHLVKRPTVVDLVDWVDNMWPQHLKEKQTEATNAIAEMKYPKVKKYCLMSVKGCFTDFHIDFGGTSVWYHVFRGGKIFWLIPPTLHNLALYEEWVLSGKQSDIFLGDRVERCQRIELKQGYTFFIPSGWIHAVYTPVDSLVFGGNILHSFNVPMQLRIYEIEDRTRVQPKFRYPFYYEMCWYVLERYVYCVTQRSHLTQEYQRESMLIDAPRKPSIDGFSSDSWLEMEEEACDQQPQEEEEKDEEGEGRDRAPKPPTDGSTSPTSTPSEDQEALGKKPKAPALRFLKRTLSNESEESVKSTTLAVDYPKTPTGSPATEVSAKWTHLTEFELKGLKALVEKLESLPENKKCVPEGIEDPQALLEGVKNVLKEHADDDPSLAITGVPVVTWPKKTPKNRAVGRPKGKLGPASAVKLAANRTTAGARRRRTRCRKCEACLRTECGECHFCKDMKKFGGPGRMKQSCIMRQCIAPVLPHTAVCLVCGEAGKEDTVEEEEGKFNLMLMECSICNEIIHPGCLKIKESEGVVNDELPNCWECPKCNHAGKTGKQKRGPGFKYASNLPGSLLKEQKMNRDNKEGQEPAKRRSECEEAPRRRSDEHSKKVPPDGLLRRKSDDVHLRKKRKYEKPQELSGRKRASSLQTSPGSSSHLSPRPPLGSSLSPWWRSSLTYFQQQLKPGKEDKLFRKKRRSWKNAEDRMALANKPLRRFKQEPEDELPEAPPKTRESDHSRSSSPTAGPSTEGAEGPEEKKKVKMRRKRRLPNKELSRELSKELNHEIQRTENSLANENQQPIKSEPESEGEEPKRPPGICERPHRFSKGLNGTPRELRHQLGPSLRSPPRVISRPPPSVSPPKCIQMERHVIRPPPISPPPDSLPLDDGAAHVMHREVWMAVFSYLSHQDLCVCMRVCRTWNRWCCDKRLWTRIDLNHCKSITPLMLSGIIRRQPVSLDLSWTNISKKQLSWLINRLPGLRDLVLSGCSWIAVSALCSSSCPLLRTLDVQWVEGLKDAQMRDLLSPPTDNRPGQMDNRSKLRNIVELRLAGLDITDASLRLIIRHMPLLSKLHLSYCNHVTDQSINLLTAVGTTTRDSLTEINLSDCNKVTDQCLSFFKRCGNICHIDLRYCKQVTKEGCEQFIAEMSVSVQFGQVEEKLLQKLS

As usually defined, the IC50 is the concentration needed to halve the response being measured. Low readings indicate higher potency, high ones lower potency. As to `O=S(=O)(c1ccc(-c2ccsc2)cc1)N1CCN=C1N1CCN(C2CCC2)CC1` [Example 20, 1-cyclobutyl-4-[1-[4-(3-thienyl)phenyl]sulfonyl-4,5-dihydroimidazol-2-yl]piperazine], the IC50 came to 0.021 nM. That is a picomolar value.
On to `O=S(=O)(c1ccc(-c2ccccc2Cl)cc1)N1CCN=C1N1CCN(C2CCC2)CC1` [Example 21, 1-[1-[4-(2-chlorophenyl)phenyl]sulfonyl-4,5-dihydroimidazol-2-yl]-4-cyclobutyl-piperazine], for which the IC50 came to 0.084 nM.
As for `O=C(c1ccc(Cl)cc1)N1CCN=C1N1CCN(C2CCC2)CC1` [Example 88, (4-chlorophenyl)-[2-(4-cyclobutylpiperazin-1-yl)-4,5-dihydroimidazol-1-yl]methanone], the figure is 2.21 nM.
Take `Cn1c(=O)oc2cc(S(=O)(=O)N3CCN=C3N3CCN(C4CCC4)CC3)ccc21` [Example 55, 6-[[2-(4-cyclobutylpiperazin-1-yl)-4,5-dihydroimidazol-1-yl]sulfonyl]-3-methyl-1,3-benzoxazol-2-one]: half-maximal inhibition (IC50) was put at 0.36 nM.
The result for `CCN1CCN(C2=NCCN2S(=O)(=O)c2ccccc2Cl)CC1` [Example 114, 1-[1-(2-chlorophenyl)sulfonyl-4,5-dihydroimidazol-2-yl]-4-ethyl-piperazine] reads 2.81 nM; that for `CCN1CCN(C2=N[C@@H](C)CN2S(=O)(=O)c2ccc(C(C)C)cc2)CC1` [Example 44, (S)-1-ethyl-4-[1-(4-isopropylphenyl)sulfonyl-4-methyl-4,5-dihydroimidazol-2-yl]piperazine], 0.519 nM; that for `O=S(=O)(c1ccc(-c2ccc(O)cc2)cc1)N1CCN=C1N1CCN(C2CCC2)CC1` [Example 17, 4-[4-[[2-(4-cyclobutylpiperazin-1-yl)-4,5-dihydroimidazol-1-yl]sulfonyl]phenyl]phenol], 0.021 nM.
Compound `Cc1ccc(-c2ccc(S(=O)(=O)N3CCN=C3N3CCN(C4CCC4)CC3)cc2)cc1` [Example 10, 1-cyclobutyl-4-[1-[4-(p-tolyl)phenyl]sulfonyl-4,5-dihydroimidazol-2-yl]piperazine] had an IC50 of 0.145 nM.
The compound `O=C(c1cccc(Cl)c1)N1CCN=C1N1CCN(C2CCC2)CC1` [Example 86, (3-chlorophenyl)-[2-(4-cyclobutylpiperazin-1-yl)-4,5-dihydroimidazol-1-yl]methanone] yielded a 50% inhibitory concentration (IC50) of 2.04 nM.
With `CCN1CCN(C2=NCCN2S(=O)(=O)c2cccc(OC(F)(F)F)c2)CC1` [Example 99, 1-ethyl-4-[1-[3-(trifluoromethoxy)phenyl]sulfonyl-4,5-dihydroimidazol-2-yl]piperazine], the midpoint of inhibition, the IC50, lay at 6.22 nM.
As for `Cc1ccccc1-c1ccc(S(=O)(=O)N2CCN=C2N2CCN(C3CCC3)CC2)cc1` [Example 8, 1-cyclobutyl-4-[1-[4-(o-tolyl)phenyl]sulfonyl-4,5-dihydroimidazol-2-yl]piperazine], the figure is 0.077 nM.
Consider `O=S(=O)(c1ccc(-c2ccccc2)cc1)N1CCN=C1N1CCN(C2CCC2)CC1` [Example 14, 1-cyclobutyl-4-[1-(4-phenylphenyl)sulfonyl-4,5-dihydroimidazol-2-yl]piperazine], for which 0.048 nM corresponded to half-maximal inhibition (IC50).
As for `O=S(=O)(c1ccc(-c2ccncc2)cc1)N1CCN=C1N1CCN(C2CCC2)CC1` [Example 18, 1-cyclobutyl-4-[1-[4-(4-pyridyl)phenyl]sulfonyl-4,5-dihydroimidazol-2-yl]piperazine], the figure is 0.095 nM.
Take `CCN1CCN(C2=NCCN2S(=O)(=O)c2ccc3ccccc3c2)CC1` [Example 110, 1-ethyl-4-[1-(2-naphthylsulfonyl)-4,5-dihydroimidazol-2-yl]piperazine]: the IC50 worked out at 0.998 nM. This IC50 is about 11-fold higher than that of the compound before.
The result for `N#Cc1cccc(-c2ccc(S(=O)(=O)N3CCN=C3N3CCN(C4CCC4)CC3)cc2)c1` [Example 13] reads 0.145 nM; that for `O=S(=O)(c1ccc(-c2ccc(Cl)cc2)cc1)N1CCN=C1N1CCN(C2CCC2)CC1` [Example 23, 1-[1-[4-(4-chlorophenyl)phenyl]sulfonyl-4,5-dihydroimidazol-2-yl]-4-cyclobutyl-piperazine], 0.275 nM.
`CC(C)c1ccc(S(=O)(=O)N2CCN=C2N2CCC(N3CCOCC3)CC2)cc1` [Example 49, 4-[1-[1-(4-isopropylphenyl)sulfonyl-4,5-dihydroimidazol-2-yl]-4-piperidyl]morpholine] came in with an IC50 of 4.22 nM.
The compound `COc1ccc(-c2ccc(S(=O)(=O)N3CCN=C3N3CCN(C4CCC4)CC3)cc2)cc1` [Example 3, 1-cyclobutyl-4-[1-[4-(4-methoxyphenyl)phenyl]sulfonyl-4,5-dihydroimidazol-2-yl]piperazine] gave an IC50 of 0.08 nM.
The result for `Cn1ccc(-c2ccc(S(=O)(=O)N3CCN=C3N3CCN(C4CCC4)CC3)cc2)n1` [Example 28, 1-cyclobutyl-4-[1-[4-(1-methylpyrazol-3-yl)phenyl]sulfonyl-4,5-dihydroimidazol-2-yl]piperazine] reads 0.049 nM.
Regarding `CCN1CCN(C2=NCCN2S(=O)(=O)c2ccc(OC(F)F)cc2)CC1` [Example 105, 1-[1-[4-(difluoromethoxy)phenyl]sulfonyl-4,5-dihydroimidazol-2-yl]-4-ethyl-piperazine], it took 3.31 nM to reach half-maximal inhibition (IC50).
`O=S(=O)(c1ccc(-c2ccccc2C(F)(F)F)cc1)N1CCN=C1N1CCN(C2CCC2)CC1` [Example 4, 1-cyclobutyl-4-[1-[4-[2-(trifluoromethyl)phenyl]phenyl]sulfonyl-4,5-dihydroimidazol-2-yl]piperazine] showed a half-maximal inhibitory concentration (IC50) of 0.102 nM.
Take `O=S(=O)(c1ccc(-c2cccs2)cc1)N1CCN=C1N1CCN(C2CCC2)CC1` [Example 19, 1-cyclobutyl-4-[1-[4-(2-thienyl)phenyl]sulfonyl-4,5-dihydroimidazol-2-yl]piperazine]: the IC50 is 0.027 nM. Compared with the last compound, the IC50 is about 3.8-fold lower.
As for `Cc1ccc(C(=O)N2CCN=C2N2CCN(C3CCC3)CC2)cc1` [Example 84, [2-(4-cyclobutylpiperazin-1-yl)-4,5-dihydroimidazol-1-yl]-(p-tolyl)methanone], the figure is 2.7 nM; as for `COc1cccc(C(=O)N2CCN=C2N2CCN(C3CCC3)CC2)c1` [Example 90, [2-(4-cyclobutylpiperazin-1-yl)-4,5-dihydroimidazol-1-yl]-(3-methoxyphenyl)methanone], 2.29 nM.
Compound `O=C(c1ccccc1)N1CCN=C1N1CCN(C2CCC2)CC1` [Example 82, [2-(4-cyclobutylpiperazin-1-yl)-4,5-dihydroimidazol-1-yl]-phenyl-methanone] showed an IC50 of 7 nM.
As for `CCN1CCN(C2=NCCN2S(=O)(=O)c2ccc(C(F)(F)F)cc2)CC1` [Example 107, 1-ethyl-4-[1-[4-(trifluoromethyl)phenyl]sulfonyl-4,5-dihydroimidazol-2-yl]piperazine], the figure is 3.92 nM; as for `Cc1cccc(S(=O)(=O)N2CCN=C2N2CCN(C3CCC3)CC2)c1` [Example 59, 1-cyclobutyl-4-[1-(m-tolylsulfonyl)-4,5-dihydroimidazol-2-yl]piperazine], 0.146 nM; as for `CCN1CCN(C2=NCCN2S(=O)(=O)c2ccc(C)cc2)CC1` [Example 117, 1-ethyl-4-[1-(p-tolylsulfonyl)-4,5-dihydroimidazol-2-yl]piperazine], 3.76 nM.
The compound `CCN1CCN(C2=NCCN2S(=O)(=O)c2cccc(C(F)(F)F)c2)CC1` [Example 103, 1-ethyl-4-[1-[3-(trifluoromethyl)phenyl]sulfonyl-4,5-dihydroimidazol-2-yl]piperazine] registered an IC50 of 6.99 nM.
As for `O=S(=O)(c1ccc(-c2cccc(C(F)(F)F)c2)cc1)N1CCN=C1N1CCN(C2CCC2)CC1` [Example 11, 1-cyclobutyl-4-[1-[4-[3-(trifluoromethyl)phenyl]phenyl]sulfonyl-4,5-dihydroimidazol-2-yl]piperazine], inhibition was half-maximal at 0.134 nM (IC50).
In the case of `COc1cccc(-c2ccc(S(=O)(=O)N3CCN=C3N3CCN(C4CCC4)CC3)cc2)c1` [Example 2, 1-cyclobutyl-4-[1-[4-(3-methoxyphenyl)phenyl]sulfonyl-4,5-dihydroimidazol-2-yl]piperazine], the IC50 stood at 0.098 nM.
For `N#Cc1ccc2cc(S(=O)(=O)N3CCN=C3N3CCN(C4CCC4)CC3)ccc2c1` [Example 36, 6-[[2-(4-cyclobutylpiperazin-1-yl)-4,5-dihydroimidazol-1-yl]sulfonyl]naphthalene-2-carbonitrile], the midpoint of inhibition, the IC50, lay at 0.13 nM.
In the case of `O=S(=O)(c1ccc(C2CC2)cc1)N1CCN=C1N1CCN(C2CCC2)CC1` [Example 34, 1-cyclobutyl-4-[1-(4-cyclopropylphenyl)sulfonyl-4,5-dihydroimidazol-2-yl]piperazine], the IC50 stood at 0.058 nM. Against the preceding compound, the IC50 is about 2.2-fold lower.
Consider `CCN1CCN(C2=NCCN2S(=O)(=O)c2cccc(OC(F)F)c2)CC1` [Example 104, 1-[1-[3-(difluoromethoxy)phenyl]sulfonyl-4,5-dihydroimidazol-2-yl]-4-ethyl-piperazine], for which the IC50 stood at 7.76 nM.
`CCN1CCN(C2=NCCN2S(=O)(=O)c2ccccc2C#N)CC1` [Example 112, 2-[[2-(4-ethylpiperazin-1-yl)-4,5-dihydroimidazol-1-yl]sulfonyl]benzonitrile]: the IC50 was 9.81 nM.
As to `CCN1CCN(C2=NCCN2S(=O)(=O)c2ccccc2OC(F)(F)F)CC1` [Example 33, 1-ethyl-4-[1-[2-(trifluoromethoxy)phenyl]sulfonyl-4,5-dihydroimidazol-2-yl]piperazine], the IC50 turned out to be 8.51 nM.
With `Cc1ccccc1C(=O)N1CCN=C1N1CCN(C2CCC2)CC1` [Example 83, [2-(4-cyclobutylpiperazin-1-yl)-4,5-dihydroimidazol-1-yl]-(o-tolyl)methanone], the IC50 was 3.07 nM.
The result for `CCN1CCN(C2=NCCN2S(=O)(=O)c2ccc(OC(F)(F)F)cc2)CC1` [Example 102, 1-ethyl-4-[1-[4-(trifluoromethoxy)phenyl]sulfonyl-4,5-dihydroimidazol-2-yl]piperazine] reads 1.66 nM; that for `CC(C)c1ccc(S(=O)(=O)N2CCN=C2N2CCN(CC3CC3C)CC2)cc1` (stereo not drawn) [Example 38, 1-[1-(4-isopropylphenyl)sulfonyl-4,5-dihydroimidazol-2-yl]-4-[(2-methylcyclopropyl)methyl]piperazine], 0.492 nM.
